Calls of active or inactive are those of the source. The rule behind the calls is not given here. Where a SMILES comes first, the peptide text is derived from it. Bridges are numbered along the chain shown (N, C = ends). [ ]: non-standard residue; d: D form. Phe(4-COOH) = N[C@@H](Cc1ccc(C(=O)O)cc1)C(=O)O

The target in assay [1] is Growth factor receptor-bound protein 7 (Homo sapiens) (UniProt Q14451). The experiment in a line: Inhibition of GRB7-FAK interaction in human SKBR3 cells assessed as FAK detection in cell lysates at 20 uM preincubated for 1 hr followed by fibronectin stimulation measured after 10 mins by Western blot analysis. The class given is cell-based. (In general: A western blot detects proteins with antibodies after separation by electrophoresis.)
Sequence of Growth factor receptor-bound protein 7 (Homo sapiens) (Q14451 whole entry): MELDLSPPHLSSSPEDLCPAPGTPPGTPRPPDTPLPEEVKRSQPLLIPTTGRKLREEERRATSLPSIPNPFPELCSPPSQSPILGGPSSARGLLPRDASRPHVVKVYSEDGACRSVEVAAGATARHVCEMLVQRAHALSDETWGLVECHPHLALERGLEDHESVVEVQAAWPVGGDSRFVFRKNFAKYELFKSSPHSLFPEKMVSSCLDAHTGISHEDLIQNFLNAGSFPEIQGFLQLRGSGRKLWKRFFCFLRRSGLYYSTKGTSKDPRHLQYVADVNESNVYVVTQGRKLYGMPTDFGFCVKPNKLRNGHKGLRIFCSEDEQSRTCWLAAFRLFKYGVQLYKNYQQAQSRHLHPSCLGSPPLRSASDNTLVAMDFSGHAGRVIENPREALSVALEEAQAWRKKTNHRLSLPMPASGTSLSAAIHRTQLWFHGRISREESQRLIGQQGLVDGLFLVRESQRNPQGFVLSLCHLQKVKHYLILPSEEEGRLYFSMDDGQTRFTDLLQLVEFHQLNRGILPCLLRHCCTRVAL

For assay [2] the target is unchanged. The experiment in a line: Inhibition of GRB7-FAK interaction in human SKBR3 cells assessed as FAK detection in whole cells at 20 uM preincubated for 1 hr followed by fibronectin stimulation measured after 10 mins by Western blot analysis. The class given is cell-based.
Assay [3] has the same target. The experiment in a line: Inhibition of GRB7-HER2 interaction in human SKBR3 cells assessed as HER2 detection in cell lysates at 20 uM preincubated for 1 hr followed by fibronectin stimulation measured after 10 mins by Western blot analysis. Type of assay: cell-based.
For assay [4] the target is unchanged. The assay can be described thus: Inhibition of GRB7-SHC interaction in human SKBR3 cells assessed as SHC detection in cell lysates at 20 uM preincubated for 1 hr followed by fibronectin stimulation measured after 10 mins by Western blot analysis. Type of assay: cell-based.
Assay [5] shares this target. The assay can be described thus: Inhibition of GRB7-SHC interaction in human SKBR3 whole cells at 20 uM preincubated for 1 hr followed by fibronectin stimulation measured after 10 mins by Western blot analysis. Type of assay: cell-based.
The target is the same in assay [6]. The experiment in a line: Inhibition of GRB7-HER2 interaction in human SKBR3 cells assessed as HER2 detection in whole cells at 20 uM preincubated for 1 hr followed by fibronectin stimulation measured after 10 mins by Western blot analysis. Type of assay: cell-based.
In assay [7] the target is T1, Growth factor receptor-bound protein 10 (Homo sapiens) (UniProt Q13322).
T1 sequence (whole entry): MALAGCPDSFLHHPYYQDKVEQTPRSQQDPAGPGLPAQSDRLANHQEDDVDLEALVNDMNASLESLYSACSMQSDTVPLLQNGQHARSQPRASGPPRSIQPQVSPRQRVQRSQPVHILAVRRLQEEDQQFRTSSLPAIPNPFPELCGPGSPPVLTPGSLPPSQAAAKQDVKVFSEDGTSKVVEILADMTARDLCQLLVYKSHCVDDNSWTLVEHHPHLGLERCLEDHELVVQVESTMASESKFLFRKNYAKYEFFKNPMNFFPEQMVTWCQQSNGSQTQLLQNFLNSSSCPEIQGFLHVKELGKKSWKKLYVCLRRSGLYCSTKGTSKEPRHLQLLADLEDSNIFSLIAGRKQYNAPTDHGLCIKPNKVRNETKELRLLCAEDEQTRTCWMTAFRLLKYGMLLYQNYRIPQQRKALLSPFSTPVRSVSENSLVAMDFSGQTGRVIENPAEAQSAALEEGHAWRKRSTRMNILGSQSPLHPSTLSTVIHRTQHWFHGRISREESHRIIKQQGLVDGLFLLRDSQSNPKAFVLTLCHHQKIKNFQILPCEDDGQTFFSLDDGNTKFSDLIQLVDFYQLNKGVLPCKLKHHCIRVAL
The experiment in a line: Binding affinity to human GST-tagged GRB10-SH2 domain (471 to 532 residues) expressed in Escherichia coli BL21(DE3) pLys after 60 to 80 secs in presence of 1 mM phosphate buffer by SPR assay. On the technique in general: Surface plasmon resonance follows binding to a sensor surface in real time, without labels.

Assay [8] concerns the target Growth factor receptor-bound protein 2 (Homo sapiens) (UniProt P62993). The experiment in a line: Binding affinity to human GST-tagged GRB2-SH2 domain expressed in Escherichia coli BL21(DE3) pLys after 60 to 80 secs in presence of 1 mM phosphate buffer by SPR assay.
Assay [9] concerns the target T1, Growth factor receptor-bound protein 10 (Homo sapiens). The assay can be described thus: Binding affinity to human GST-tagged GRB10-SH2 domain (471 to 532 residues) expressed in Escherichia coli BL21(DE3) pLys after 60 to 80 secs in presence of 50 mM phosphate buffer by SPR assay.
In assay [10] the target is Growth factor receptor-bound protein 2 (Homo sapiens) (UniProt P62993). The experiment in a line: Binding affinity to human GST-tagged GRB2-SH2 domain expressed in Escherichia coli BL21(DE3) pLys after 60 to 80 secs in presence of 50 mM phosphate buffer by SPR assay.
Sequence of Growth factor receptor-bound protein 2 (Homo sapiens) (P62993 whole entry, looked up, the tested form may be a part): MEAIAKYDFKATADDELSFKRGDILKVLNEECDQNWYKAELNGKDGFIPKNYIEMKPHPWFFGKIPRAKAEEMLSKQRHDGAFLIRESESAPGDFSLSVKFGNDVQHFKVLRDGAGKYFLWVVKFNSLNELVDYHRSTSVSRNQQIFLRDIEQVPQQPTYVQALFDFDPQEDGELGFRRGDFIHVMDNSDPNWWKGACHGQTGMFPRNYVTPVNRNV

Regarding `CC[C@H](C)[C@H](NC(=O)[C@H](CCCCN)NC(=O)[C@@H](NC(=O)[C@H](CCC(N)=O)NC(=O)[C@H](CCCNC(=N)N)NC(=O)[C@@H]1CSCC(=O)N[C@@H](Cc2c[nH]c3ccccc23)C(=O)N[C@@H](Cc2ccccc2)C(=O)N[C@@H](CCC(=O)O)C(=O)NCC(=O)N[C@@H](Cc2ccc(C(=O)O)cc2)C(=O)N[C@@H](CC(=O)O)C(=O)N[C@@H](CC(N)=O)C(=O)N[C@@H]([C@@H](C)O)C(=O)N[C@@H](Cc2ccccc2)C(=O)N2CCC[C@H]2C(=O)N1)[C@@H](C)CC)C(=O)N[C@@H](Cc1c[nH]c2ccccc12)C(=O)N[C@@H](Cc1ccccc1)C(=O)N[C@@H](CCC(N)=O)C(=O)N[C@@H](CC(N)=O)C(=O)N[C@@H](CCCNC(=N)N)C(=O)N[C@@H](CCCNC(=N)N)C(=O)N[C@@H](CCSC)C(=O)N[C@@H](CCCCN)C(=O)N[C@@H](Cc1c[nH]c2ccccc12)C(=O)N[C@@H](CCCCN)C(=O)N[C@@H](CCCCN)C(N)=O`, the inhibition entry in assay [1], in [2], in [3], in [4], in assay [5] and in [6] was “Active” throughout.
Take `NC(=O)C[C@@H]1NC(=O)[C@H](CC(=O)O)NC(=O)[C@H](Cc2ccc(O)cc2)NC(=O)CNC(=O)[C@H](CCC(=O)O)NC(=O)[C@H](Cc2ccccc2)NC(=O)[C@@H]2COCc3cn(nn3)CCC[C@H](NC1=O)C(=O)N[C@H](C(N)=O)CSCC(=O)N2`: the result in assay [7], in assay [8], in [9] and in assay [10] was inactive.
`NC(=O)C[C@@H]1NC(=O)[C@H](CC(=O)O)NC(=O)[C@H](Cc2ccc(O)cc2)NC(=O)CNC(=O)[C@H](CCC(=O)O)NC(=O)[C@H](Cc2ccccc2)NC(=O)[C@@H]2CCC(=O)NCCCC[C@H](NC1=O)C(=O)N[C@H](C(N)=O)CSCC(=O)N2` ({CH2CO}-EFEGYDNKC-NH2; lactam 1-8; thioether N-9): the result in assay [7], in assay [8], in [9] and in assay [10] was inactive.
For the molecule `NC(=O)C[C@@H]1NC(=O)[C@H](CC(=O)O)NC(=O)[C@H](Cc2ccc(O)cc2)NC(=O)CNC(=O)[C@H](CCC(=O)O)NC(=O)[C@H](Cc2ccccc2)NC(=O)[C@@H]2CCCCNC(=O)CC[C@H](NC1=O)C(=O)N[C@H](C(N)=O)CSCC(=O)N2` ({CH2CO}-KFEGYDNEC-NH2; lactam 1-8; thioether N-9), the result in assay [7], in assay [8], in assay [9] and in [10] was inactive.
`CC[C@H](C)[C@H](NC(=O)[C@H](CCCCN)NC(=O)[C@@H](NC(=O)[C@H](CCC(N)=O)NC(=O)[C@H](CCCNC(=N)N)NC(=O)[C@@H]1CSCC(=O)N[C@H]2CCCCNC(=O)CC[C@H](NC(=O)[C@H](CC(N)=O)NC(=O)[C@H](CC(=O)O)NC(=O)[C@H](Cc3ccc(O)cc3)NC(=O)CNC(=O)[C@H](CCC(=O)O)NC(=O)[C@H](Cc3ccccc3)NC2=O)C(=O)N1)[C@@H](C)CC)C(=O)N[C@@H](Cc1c[nH]c2ccccc12)C(=O)N[C@@H](Cc1ccccc1)C(=O)N[C@@H](CCC(N)=O)C(=O)N[C@@H](CC(N)=O)C(=O)N[C@@H](CCCNC(=N)N)C(=O)N[C@@H](CCCNC(=N)N)C(=O)N[C@@H](CCSC)C(=O)N[C@@H](CCCCN)C(=O)N[C@@H](Cc1c[nH]c2ccccc12)C(=O)N[C@@H](CCCCN)C(=O)N[C@@H](CCCCN)C(N)=O` ({CH2CO}-KFEGYDNECRQIKIWFQNRRMKWKK-NH2; lactam 1-8; thioether N-9): the inhibition entry in assay [1], in [2], in [3], in assay [4], in assay [5] and in [6] was “Active” in each case.
Turning to `CC[C@H](C)[C@H](NC(=O)[C@H](CCCCN)NC(=O)[C@@H](NC(=O)[C@H](CCC(N)=O)NC(=O)[C@H](CCCNC(=N)N)NC(=O)[C@@H]1CSCC(=O)N[C@H]2CCCCNC(=O)CC[C@H](NC(=O)[C@H](CC(N)=O)NC(=O)[C@H](CC(=O)O)NC(=O)[C@H](Cc3ccc(C(=O)O)cc3)NC(=O)CNC(=O)[C@H](CCC(=O)O)NC(=O)[C@H](Cc3ccccc3)NC2=O)C(=O)N1)[C@@H](C)CC)C(=O)N[C@@H](Cc1c[nH]c2ccccc12)C(=O)N[C@@H](Cc1ccccc1)C(=O)N[C@@H](CCC(N)=O)C(=O)N[C@@H](CC(N)=O)C(=O)N[C@@H](CCCNC(=N)N)C(=O)N[C@@H](CCCNC(=N)N)C(=O)N[C@@H](CCSC)C(=O)N[C@@H](CCCCN)C(=O)N[C@@H](Cc1c[nH]c2ccccc12)C(=O)N[C@@H](CCCCN)C(=O)N[C@@H](CCCCN)C(N)=O` ({CH2CO}-KFEG[Phe(4-COOH)]DNECRQIKIWFQNRRMKWKK-NH2; lactam 1-8; thioether N-9), the inhibition result in assay [1], in assay [2], in assay [3], in [4], in assay [5] and in assay [6] was “Active” throughout.

The values above are taken from ChEMBL document CHEMBL4028884, “Discovery, Development, and Cellular Delivery of Potent and Selective Bicyclic Peptide Inhibitors of Grb7 Cancer Target” (J Med Chem, 2017).
